Test system: intracellular CEM15
Test: Western blot of CEM15 abundance after co-expression of CEM15 and Vif in 293T cells
Format: cell-based, human
Details: within 36-48 h post-transfection
Excerpt: CEM15 abundance can be quantified by western blotting as described above. Small molecules that bind to any of the aforementioned peptides can be evaluated for their ability to protect or restore CEM15 abundance using the aforementioned western blotting systems of whole cell extracts of cells that have been transfected with CEM15 and Vif wherein these proteins are co-expressed in 293T cells (conditions that result in CEM15 destruction) and evaluated (by western blotting of cell extracts) for the ability of VDA peptides of varying size and sequence to restore CEM15 abundance. Co-expression of CEM15 and Vif by transfection in 293T cells results ˜99% ablation of intracellular CEM15 within 36-48 h post-transfection. […] All peptides are tested according to this schedule. Expression of CEM15 and Vif are driven from the CMV promoter of pcDNA3 plasmids.

Question: “Vif: HIV-1 viral infectivity factor, SEQ ID NO: 7; induces degradation of CEM15” was tested. Which “ablation of intracellular CEM15” value did it give?
Answer: The value was about 99%.

From US20050112555A1, “Cytidine deaminase activators, deoxycytidine deaminase activators, Vif antagonists, and methods of screening for molecules thereof” (priority 2003, published 2005)
